Laboratory results taken from patent US20070196850A1, “Identification of aging genes through large-scale analysis” (priority 2006, published 2007).
Where two headings read alike, the source gives them in different places.

Tested on: yeast cells (BY4742)
Type: cell-based, Saccharomyces cerevisiae
Experimental: FIG. 2 illustrates replicative life span (“RLS”) analysis in yeast. […] A mother cell is a yeast cell that has produced one or more daughter cells. […] The total number of mitotic divisions completed by a given mother cell is the replicative life span for that mother cell. One indicator of senescence in yeast is the inability to produce daughter cells.
A large-scaled, life-span analysis is performed as follows. Approximately three days before initiating a life-span-determination assay, a set of 95 strains contained in a yeast alpha-haploid-deletion collection (Open Biosystems), is transferred to a 96-well plate containing YPDagar using a FX robot, so that each strain occupies one well of a 96-well plate. Concurrently, “wildtype” reference cells (BY4742) are plated within an empty well of the 96-well test plate. For 1-2 days, plated cells are allowed to grow on rich medium, such as YPD, at 30° C. Cells are patched onto life-span-measuring plates containing YPD so that approximately 12 strains are plated per plate the night, or approximately 12 hours, before initiating life-span analysis. A life-span experiment is initiated by gridding a region of the plate distal to growing cells, to which 5 cells of each strain of 12 strains are transferred by micromanipulation. Cells are incubated for two hours at 30° C. Then, virgin daughter cells of each deletion variant cell are selected, and original mother cells are removed. Such virgin daughter cells are monitored for de novo production of daughters at 2-3 hour intervals. Produced daughters are individually removed, and tabulated. Mother cells are placed back at 30° C. to allow continued growth. During evening hours, cells are moved to 4° C. so that the cell division rate is reduced to one cell division per evening. The following day, cells are placed at 30° C. to resume growth. This process is continued for a period of time, approximately two weeks, to allow cells of each variant strain to exhaust its proliferative potential. The total number of daughter cells produced by each mother variant cell is tabulated, and determined RLS values are entered into a database.
To perform the life span experiment, 15 μg/mL diazaborine A was added to standard yeast life span plates (YPD). Cells are patched to these plates the night prior to initiation of the life span. The next morning, individual cells were moved to a location on the plate distant from the patch and allow them to divide. The first daughters produced by each mother cell are used to initiate the life span experiment. Subsequently, each daughter cell that these cells produce is removed with a micromanipulator and tabulations are kept.

Compound | replicative life span in yeast (exposure of yeast cells to MSX) | life span (yeast, 50 uM) | life span (yeast, 100 uM) | life span (yeast, 1 mM) | increase in mean replicative life span (maximal life span extension) (yeast, 1 mM, preliminary experiments) | life span (yeast, 2.5 mM) | life span of yeast cells on drug treatment (yeast cells treated with drug vs no drug control)
CS(=N)(=O)CC[C@H](N)C(=O)O (stereo partly shown) [MSX, methionine sulfoximine] | extends replicative life span | significantly increases life span | significantly increases life span | significantly increases life span | 25-30% | significantly increases life span | 
C[C@@H]1C[C@@H]([C@H](O)CC2CC(=O)NC(=O)C2)C(=O)[C@@H](C)C1 [cycloheximide] |  |  |  |  |  |  | does not increase life span
